In ChEMBL document CHEMBL4665646, “Mass Spectrometry-based Label-free Quantitative Proteomics To Study the Effect of 3PO Drug at Cellular Level” (2019):
Active and inactive are the calls of the source. The rule behind the calls is not given here.

What was measured:
EA.hy 926 [1] = assay: (§1) Antiinflammatory activity in TNFalpha-induced human EA.hy 926 cells assessed as decrease in ICAM-1 expression by measuring log2 fold change at 20 uM pretreated with compound for 1 hr followed by TNFalpha challenge and further incubated for 24 hrs by SYBR-green based qRT-PCR analysis; assay type: functional; conditions: time 25 hrs
EA.hy 926 [2] = assay: as §1, with “HLA-A” for “ICAM-1”, “analysis (reference value: 1.56)” for “analysis”; assay type: functional; conditions: time 25 hrs
EA.hy 926 [3] = assay: as §1, with “SOD-2” for “ICAM-1”, “analysis (reference value: 2.69)” for “analysis”; assay type: functional; conditions: time 25 hrs
EA.hy 926 [4] = assay: Cytotoxicity against human EA.hy 926 cells assessed as inhibition of cell proliferation at 20 uM after 24 hrs by MTT assay; assay type: functional, cell-based
EA.hy 926 [5] = assay: Antiinflammatory activity in TNFalpha-induced human EA.hy 926 cells assessed as decrease in IL1B expression at 20 uM pretreated with compound for 1 hr followed by TNFalpha challenge and further incubated for 24 hrs by SYBR-green based qRT-PCR analysis; assay type: functional, cell-based; conditions: time 25.0 hrs
EA.hy 926 [6] = assay: Antiinflammatory activity in TNFalpha-induced human EA.hy 926 cells assessed as decrease in IL8 expression at 20 uM pretreated with compound for 1 hr followed by TNFalpha challenge and further incubated for 24 hrs by SYBR-green based qRT-PCR analysis; assay type: functional, cell-based; conditions: time 25.0 hrs
EA.hy 926 [7] = assay: Antiinflammatory activity in TNFalpha-induced human EA.hy 926 cells assessed as decrease in […] expression at 20 uM pretreated with compound for 1 hr followed by TNFalpha challenge and further incubated for 24 hrs by SYBR-green based qRT-PCR analysis; assay type: functional, cell-based; conditions: time 25.0 hrs

O=C(/C=C/c1cccnc1)c1ccncc1
log2FC (EA.hy 926 [1]): -0.47
log2FC (EA.hy 926 [2]): -0.75
log2FC (EA.hy 926 [3]): -0.53
inhibition (EA.hy 926 [4]): Active
Activity (EA.hy 926 [5]): Active
Activity (EA.hy 926 [6]): Active
Activity (EA.hy 926 [7]): Active
